Data taken from patent US12697366B2, “Thermogenic compositions and methods” (Ohio State Innovation Foundation, priority 2016, dated 2026).

What was measured:
[1] = system: PPARα-LBD; test: PPARα-LBD luciferase reporter in transiently transfected HEK293 cells; assay type: cell-based, human; settings: EREG 50 ng/mL; EGFR-I 10 μM, MAPK-I 10 μM, HSL-I 10 μM, SRC-I 1 μM, PI3K-I 100 nM
Description: FIGS. 11A to 11I show adipokine Ereg is bilaterally associated with obesity and thermogenesis and activates PPARα. […] Microarray gene analysis was performed using Affymetrix microarray. FIG. 11B: Ereg expression was measured in non-differentiated and differentiated (day 5) 3T3-L1 adipocytes (Mann-Whitney test) using a customized NanoString mouse panel. FIG. 11C: Ereg expression was measured in differentiated (day 5) 3T3-L1 and Aldh1a1^−/− adipocytes by Taqman and normalized to TATA box protein (TBP). FIG. 11D: Plasma EREG concentrations were measured in mice from Study 1 by western blot. […] FIG. 11E: Plasma EREG concentrations were measured and quantified in iAb of WT and ob/ob mice from Study 2 by western blot (n=5 per each group). […] FIG. 11F: EREG was measured in iAb, subcutaneous and brown fat by western blot. Fat pads were dissected from WT mice on regular chow (Study 1). FIG. 11G: Ucp2 and Ucp1 expression was measured in differentiated 3T3-L1 adipocytes (day 5) stimulated with vehicle (PBS) or recombinant EREG (50 ng/mL) added in the differentiation medium I and II. Expression level were measured by Taqman and normalized by TBP. FIGS. 11H and 11I: HEK293 cells were transiently transfected with PPARα-LBD, UASTK-luciferase, and renilla. […] Data represents % PPARα-LBD activation. Asterisks indicate significant difference (p<0.05) compared to vehicle control, #, indicates statistical difference between PPARα-LBD activation by EREG alone and in the presence of inhibitors. Data represent mean±SD. The Mann-Whitney test was used throughout these studies for group comparison.
HEK293 cells ([…] cells, 24-well plates) were used for transient transfection experiments. Cells were transfected with human PPARα-LBD construct, yeast UASTK luciferase reporter (SwitchGear Genomics, Menlo Park, CA), using Fugene (Roche Applied Science, Indianapolis, IN). Transfections were carried out in OptiMeM (Invitrogen, Carlsbad, CA) medium for 12 hours as described previously. Luciferase was measured using Promega assay according to manufacturer's instructions

[2] = system: 3T3-L1 adipocytes; test: LTA axon guidance gene expression in 3T3-L1 adipocytes (NanoString mouse innervation panel); assay type: cell-based; settings: 24 hrs; for Efna5 and Epha4 expression: TTNPB 50 nM or BMS493 100 nM
Description: FIG. 5A to 5I show retinoids regulate the LTA axon guiding secretome via ephrin A5. FIG. 5A: DRG neurons were cultured in DRG culture medium with secretome from Aldh1a1^−/− adipocytes (1/1, v/v) that were treated with or without RA (100 nM). RA was added to Aldh1a1^−/− differentiation medium (Day 0, 2, 5). To prepare this secretome, medium was collected for last 24 hours. Representative images were selected from three independent experiments. Average neurite growth indices were measured by XTI microscopy in DRG neurons in DRG culture medium containing veh (white bar), NGF (vertical lined bar), or Aldh1a1^−/− secretome treated without (black bar) or with RA (hatched bar). An asterisk indicates P<0.05; Mann-Whitney U test. FIG. 5B: 3T3-L1 adipocytes (n=3) were cultured in differentiation medium for 4 days. At day 5, medium was replaced by UV-treated 1% FBS-contained DMEM with and without Rald (30 nM). 24 hrs post stimulation, cells were harvested for mRNA. The gene expression was measured by the customized NanoString mouse innervation panel. […] Gene expression was measured by the NanoString mouse innervation panel. […] Protein levels of ephrin-A5 ligand (EFNA5) in medium EFNA5 and β-actin in cell lysates were analyzed by Western blot at Day 0, 2, 4, and 6. FIG. 5F: Plasma from WT and Aldh1a1^−/− mice (Table 1, Study 4) was measured by EFNA5 ELISA (n=5 per group) Table 1, Study 4. […] FIG. 5H: Tyrosine hydroxylase (TH) protein levels was analyzed in whole subcutaneous (Western blot insert) and iAb fat pads from mice injected with PBS (n=3) or EFNA5 (n=4, Table 1, Study 5) by Western blot. […] FIG. 5I: Heat (metabolic rate) was measured in PBS- and EFNA5-injected mice from Study 4 after 4° C. exposure by an open circuit indirect calorimetry treadmill (basal metabolic rate for 42 h is shown in FIG. 9C). […]
NanoString's nCounter analysis (NanoString Technologies) system performed direct detection of target molecules from a single sample using color-coded molecular barcodes, giving a digital quantification of the number of target molecules as described before (Shen et al., 2015, PMID: 25620076). […]

[3] = system: iAb (omental) fat explants; test: LEP release from iAb (omental) fat explants of an obese patient (ELISA); assay type: cell-based, human; settings: EGFR-I, MAPK-I, PI3K-I
Description: FIGS. 14A to 14N show EREG induces expression of thermogenic and PPARα-target genes, suppresses inflammatory genes, and stimulates leptin secretion. FIGS. 14A to 14H and 14L: Markers for thermogenesis, adipogenesis, and inflammatory genes were analyzed using homogenates from whole iAb fat pads isolated from Veh- (white bars) and EREG-treated (black bars) DIO mice (Study 3). Gene expression was quantified using a customized NanoString panel. Data represent mean±SD, n.s.,—non-significant. FIG. 14I: LEP was measured in plasma in the same mice by ELISA. Data (mean±SD) are shown as percent to control (Veh, 100%) and is indicated as a dashed line. FIG. 14J: LEP release after stimulation with different concentrations of recombinant human EREGs was measured in explants of iAb (omental) tissue obtained from an obese insulin resistant patient. FIG. 14K: LEP release after stimulation of explants from same donor with and without EREG (50 ng/mL) in the presence and absence of insulin (Ins, 10 μg/mL), MAPK-I, EGFR-I, PI3K-I. Inhibitors concentrations were described in FIG. 1. FIG. 14M: LEP release after stimulation of iAb fat explants (2 h) from WT mice with different concentrations of recombinant mouse EREG. Experiment was repeated in three different WT mice. Data (mean±SD) are shown as percent to control (Veh, 100%). FIG. 14N: LEP release following stimulation of iAb fat explants (2 h) from WT mice with inhibitors of EGFR (10 μM) and MAPK (10 μM) in the presence or absence of EREG (50 ng/ml). Data (mean±SD) are shown as percent to control (Veh, 100%).
Abdominal fat tissue obtained from an obese patient was excised into 35 mg sections for stimulation with EREG. Explants were stimulated with EREG in DMEM containing 1% FBS for 2 h. Media was collected after 2 h, lyophilized and reconstituted in 120 μL deionized water for leptin detection using ELISA kit (Alpco, Salem, NH).

[4] = system: 3T3-L1 preadipocytes; test: FD-glucose uptake in 3T3-L1 preadipocytes; assay type: cell-based, mouse; settings: 30 mins; insulin 10 μg/ml, EREG 50 ng/ml, forskolin 4 μg/ml
Description: Non-differentiated, 90% confluent 3T3-L1 cells were starved with glucose-deprived medium for 40 min. Then cells were treated in the presence and absence of different concentrations of nanoscaffold #2 and bovine insulin (200 μg/mL), all of reagents dissolved in the same glucose-deprived medium but containing fluorescent-D (FD)-glucose for 80 min. Thereafter, the FD glucose uptake was measured according to manufacturer's instructions (Cayman Chemical, USA, cat #600471). […] Non-differentiated, 90% confluent 3T3-L1 cells treated in the presence and absence of different concentrations of nanoscaffold #2 and bovine insulin (10 μg/mL) or mouse epiregulin (EREG, 0.05 μg/mL) and incubated for 24 h. Then cells were starved with glucose-deprived medium for 40 min and, then incubated with fluorescent-D (FD)-glucose for 80 min. Thereafter, the FD glucose uptake was measured according to manufacturer's instructions (Cayman Chemical, USA, cat #600471). Data are shown as percent of uptake in the presence of insulin (100%).
Non-differentiated, 90% confluent 3T3-L1 cells treated in the presence of bovine insulin (10 μg/mL), mouse epiregulin (EREG, 0.05 μg/mL), or their combinations and incubated for 24 h. Then cells were starved with glucose-deprived medium for 40 min and, then incubated with fluorescent-D (FD)-glucose for 80 min. Thereafter, the FD glucose uptake was measured according to manufacturer's instructions (Cayman Chemical, USA, cat #600471).
Non-differentiated, 90% confluent 3T3-L1 cells were starved with glucose-deprived medium for 50 min. Then cells were treated in the presence and absence of different concentrations of mouse recombinant IGFBP4 with and without nanoscaffold #2 and human insulin (10 μg/mL). All of reagents were dissolved in the same glucose-deprived medium but containing fluorescent-D (FD)-glucose for 90 min. Thereafter, the FD glucose uptake was measured according to manufacturer's instructions (Cayman Chemical, USA, cat #600471).
Glucose uptake assay was performed using glucose uptake cell-based assay kit (Cayman Chemical, Ann Arbor, MI). 3T3-L1 or human preadipocytes were cultured at a density of 5×10^4 per well into a 96-well plate (n=7) in high glucose media and grown overnight. Old cell culture medium was removed the next day and washed with PBS to remove residual glucose. Supplied 2-deoxy-2-[(7-nitro-2,1,3-benzoxadiazol-4-yl)amino]-D-glucose) (2-NBDG) was diluted to 150 μg/mL in DMEM medium without glucose, phenol red, L-glutamine, sodium pyruvate, and HEPES (Life technologies, Grand Island, New York). 100 μL of 2-NBDG glucose free medium with or without recombinant EREG and other treatments was added to the plated cells. After incubating at 37° C. for 30 minutes, cells were washed gently two times with 200 μL of glucose assay buffer. 100 μL of the assay buffer was added to each well and measured for fluorescence at an excitation/emission of 485/535 nm.
Fluorescence glucose uptake (FD-glucose assay) was performed as described PMID: 32065973, using insulin, 1.7 μM and different AACs at concentration 0.1 μM.
FD-glucose uptake in mouse 3T3-L1 preadipocytes (n=8 per treatment) treated with vehicle (Veh; PBS, open bar) or hINS (1.7 μM), mouse leptin (mLep; 12.5 nM, hatched bar), or AAC2 (0.1 μM black bar) in the presence and absence of GLUT1 inhibitor (BAY-876; 10 nM in DMSO). Cells were pre-treated with or without BAY-876 for 40 min and then FD glucose and treatment reagents were added for additional 80 min of incubation. Data (%) was normalized to FD-glucose uptake in control (Veh) 3T3-L1 cells without inhibitor (100%). Student's independent t-test.

SMILES: COc1ccc(Cl)c(Nc2ncnc3cc(OCC4CCN(C)CC4)c(OC)cc23)c1 [SRC inhibitor, AZM475271]
- EREG-dependent PPARα-LBD activation in the presence of inhibitor [1]: now effect

SMILES: CC1=C(/C=C/C(C)=C/C=C/C(C)=C/C=O)C(C)(C)CCC1 [retinaldehyde]
- expression of molecules associated with the LTA-axon guidance secretome ([2]; Rald 30 nM): significantly increased

SMILES: N#CC(=C(/N)Sc1ccccc1N)/C(C#N)=C(\N)Sc1ccccc1N [MAPK inhibitor, U0126]
- EREG / insulin mediated LEP release in the presence of inhibitor [3]: inhibited
- EREG-dependent PPARα-LBD activation in the presence of inhibitor [1]: abolished

SMILES: C/C(=C\c1ccc(C(=O)O)cc1)c1ccc2c(c1)C(C)(C)CCC2(C)C [TTNPB]
- Efna5 and Epha4 expression [2]: suppressed

SMILES: CC1(C)CC=C(C#Cc2ccccc2)c2cc(/C=C/c3ccc(C(=O)O)cc3)ccc21 [BMS429]
- Efna5 and Epha4 expression [2]: induced

SMILES: C=C[C@@]1(C)CC(=O)[C@]2(O)[C@@]3(C)[C@@H](O)CCC(C)(C)[C@@H]3[C@H](O)[C@H](OC(C)=O)[C@@]2(C)O1 [forskolin, reference compound]
- glucose uptake compared to non-stimulated 3T3-L1 preadipocytes [4]: 245%

SMILES: COc1nn(-c2ccc(NC(=O)OCc3ccccc3)c(C)c2)c(=O)o1 [HSL inhibitor, CAY10499]
- EREG-dependent PPARα-LBD activation in the presence of inhibitor [1]: abolished

SMILES: COc1cc2ncnc(Nc3cccc(Cl)c3)c2cc1OC [EGFR inhibitor, Tyrphostin AG1478]
- EREG / insulin mediated LEP release in the presence of inhibitor [3]: inhibited
- EREG-dependent PPARα-LBD activation in the presence of inhibitor [1]: abolished
